Assay results as given in ChEMBL document CHEMBL5113374, “Research progress in biological activities of isochroman derivatives” (Eur J Med Chem, 2021).
Values after ≈ are worked out from the molar mass of the structure shown.

Columns and labels:
Acetylcholinesterase [1] = molecular target: T1, Acetylcholinesterase (Homo sapiens, UniProt P22303); assay: Inhibition of AChE in human erythrocytes using acetylthiocholine iodide as substrate at 50 uM incubated for 20 mins by DTNB reagent based Ellman's method; assay type: cell-based; conditions: Erythrocyte
T1 sequence (P22303 whole entry): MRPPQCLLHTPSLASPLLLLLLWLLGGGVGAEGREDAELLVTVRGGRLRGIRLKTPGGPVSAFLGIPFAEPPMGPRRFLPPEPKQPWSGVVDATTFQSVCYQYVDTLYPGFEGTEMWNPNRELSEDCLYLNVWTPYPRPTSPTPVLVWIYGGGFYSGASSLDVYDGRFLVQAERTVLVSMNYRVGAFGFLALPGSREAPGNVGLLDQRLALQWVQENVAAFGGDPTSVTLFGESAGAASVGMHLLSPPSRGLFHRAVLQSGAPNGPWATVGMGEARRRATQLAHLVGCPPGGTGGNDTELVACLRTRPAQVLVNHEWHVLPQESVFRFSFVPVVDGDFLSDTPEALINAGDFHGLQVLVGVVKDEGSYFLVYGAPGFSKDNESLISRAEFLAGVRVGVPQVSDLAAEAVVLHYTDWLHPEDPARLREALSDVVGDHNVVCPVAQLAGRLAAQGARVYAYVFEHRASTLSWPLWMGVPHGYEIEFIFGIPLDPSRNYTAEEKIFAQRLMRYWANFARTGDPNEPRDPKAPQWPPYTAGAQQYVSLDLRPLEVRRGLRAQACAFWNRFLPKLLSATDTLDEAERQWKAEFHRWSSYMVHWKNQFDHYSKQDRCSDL

Rattus norvegicus [2] = assay: Antisecretory activity in Sprague-Dawley rat assessed as inhibition of gastric acid accumulation at 20 mg/kg,ID; assay type: functional
L5178Y = assay: Cytotoxicity against […] assessed as inhibition of cell viability at 10 ug/ml; assay type: functional; conditions: Mus musculus
Escherichia coli = assay: Antibacterial activity against Escherichia coli ATTC-25922 assessed as bacterial growth inhibition incubated for 24 hrs by disk diffusion assay; assay type: functional
Pseudomonas aeruginosa = assay: Antibacterial activity against Pseudomonas aeruginosa ATTC-27853 assessed as bacterial growth inhibition incubated for 24 hrs by disk diffusion assay; assay type: functional
Aspergillus fumigatus = assay: Antifungal activity against Aspergillus fumigatus assessed as fungal growth inhibition incubated for 1 hrs by disk diffusion assay; assay type: functional
Klebsiella pneumoniae = assay: Antibacterial activity against Klebsiella pneumoniae assessed as bacterial growth inhibition incubated for 24 hrs by disk diffusion assay; assay type: functional
Talaromyces marneffei = assay: Antifungal activity against Penicillium marneffei assessed as fungal growth inhibition incubated for 1 hrs by disk diffusion assay; assay type: functional
[3] = tested on: Trichophyton mentagrophytes; assay: Antifungal activity against Trichophyton mentagrophytes assessed as fungal growth inhibition incubated for 1 hrs by disk diffusion assay; assay type: functional
Aspergillus flavus = assay: Antifungal activity against Aspergillus flavus assessed as fungal growth inhibition incubated for 1 hrs by disk diffusion assay; assay type: functional
Staphylococcus aureus = assay: Antibacterial activity against Staphylococcus aureus ATTC-25923 assessed as bacterial growth inhibition incubated for 24 hrs by disk diffusion assay; assay type: functional
[4] = molecular target: Glutamate NMDA receptor (Rattus norvegicus) (UniProt P35439+Q00959+Q00960+Q00961+Q62645+Q8VHN2+Q9R1M7); assay: Displacement of 3H-(+)-MK 801 from NMDA receptor in rat brain incubated for 80 mins by liquid scintillation counting method; assay type: tissue-based; conditions: filed as antagonist
Homo sapiens = species: Homo sapiens; assay: Selectivity index, ratio of IC50 for […] (unknown origin)
Acetylcholinesterase [5] = molecular target: T1, Acetylcholinesterase; assay: Inhibition of AChE (unknown origin) using acetylthiocholine iodide as substrate incubated for 10 mins by DTNB reagent based Ellman's method
D(1A) dopamine receptor = D(1A) dopamine receptor (Sus scrofa, UniProt P50130); assay: Displacement of [3H]SCH-23390 from porcine striatum dopamine D1 receptor incubated for 30 mins by radioligand competition binding assay based scintillation counter analysis; assay type: tissue-based
D(1A) dopamine receptor, sequence (P50130 whole entry): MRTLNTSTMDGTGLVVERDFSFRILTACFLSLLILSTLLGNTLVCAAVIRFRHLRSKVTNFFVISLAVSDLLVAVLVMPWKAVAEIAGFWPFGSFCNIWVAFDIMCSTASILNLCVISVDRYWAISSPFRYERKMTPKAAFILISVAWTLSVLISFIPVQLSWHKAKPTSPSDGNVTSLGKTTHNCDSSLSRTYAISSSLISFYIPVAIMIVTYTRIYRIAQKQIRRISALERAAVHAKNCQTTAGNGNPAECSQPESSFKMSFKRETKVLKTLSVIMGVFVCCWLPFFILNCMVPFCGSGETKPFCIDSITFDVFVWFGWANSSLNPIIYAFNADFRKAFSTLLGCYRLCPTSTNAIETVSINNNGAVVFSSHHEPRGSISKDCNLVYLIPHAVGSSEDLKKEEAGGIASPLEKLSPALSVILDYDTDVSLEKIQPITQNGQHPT

[6] = Displacement of [3H]SCH-23390 from porcine striatum dopamine D2 receptor incubated for 30 mins by radioligand competition binding assay based scintillation counter analysis; assay type: tissue-based, Sus scrofa
HL-60 = assay: Cytotoxicity against human HL-60 cells; assay type: functional, cell-based
Mus musculus [7] = assay: Analgesic activity in po dosed phenylquinone induced mouse assessed as assessed as reduction in phenylquinone induced writhing; assay type: functional
[8] = molecular target: Beta-1 adrenergic receptor (Rattus norvegicus) (UniProt P18090); assay: Antagonist activity against beta1 adrenoceptor in Sprague-Dawley rat incubated for 5 mins; conditions: filed as antagonist
Beta-1 adrenergic receptor (Rattus norvegicus), sequence (P18090 whole entry, looked up): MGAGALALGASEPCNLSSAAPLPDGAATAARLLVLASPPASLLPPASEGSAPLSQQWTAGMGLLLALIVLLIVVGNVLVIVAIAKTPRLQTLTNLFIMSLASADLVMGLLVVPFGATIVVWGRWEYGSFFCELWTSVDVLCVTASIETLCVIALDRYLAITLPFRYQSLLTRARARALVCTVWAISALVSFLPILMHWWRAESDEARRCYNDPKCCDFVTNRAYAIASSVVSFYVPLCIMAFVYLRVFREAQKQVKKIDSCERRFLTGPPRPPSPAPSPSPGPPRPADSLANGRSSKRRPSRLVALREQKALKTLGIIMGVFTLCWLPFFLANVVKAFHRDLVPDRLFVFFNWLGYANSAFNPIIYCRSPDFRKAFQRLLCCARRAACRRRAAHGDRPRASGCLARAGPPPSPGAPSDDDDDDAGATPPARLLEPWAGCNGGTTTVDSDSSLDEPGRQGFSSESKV

Rattus norvegicus [9] = species: Rattus norvegicus; assay: Antiallergic activity in Wistar rat abdominal cavity assessed as inhibition of C48/80-induced histamine release at 0.0005 M incubated for 30 mins by OPT-fluorophore based spectrofluorometric analysis; assay type: functional; conditions: 0.5 h
Lasiodiplodia theobromae = assay: Antifungal activity against Lasiodiplodia theobromae assessed as fungal growth inhibition at 100 ug/ml incubated for 4 days by disk method; assay type: functional; conditions: 96 h, time 4 day
[10] = Antioxidant activity assessed as DPPH radical scavenging activity by HPLC analysis; assay type: functional
[11] = Antioxidant activity assessed as hydroxy radical scavenging activity by HPLC analysis; assay type: functional
[12] = Antioxidant activity assessed as Ferric ion reducing activity by FRAP assay based HPLC analysis; assay type: functional
[13] = Selectivity index, ratio of Ki for displacement of [3H]-(+)-pentazocine from sigma1 receptor in guinea pig brain membrane to Ki for displacement of [3H]DTG from sigma 2 receptor in Sprague-Dawley rat liver membranes; assay type: cell membranes
[14] = molecular target: Sigma non-opioid intracellular receptor 1 (Cavia porcellus, UniProt Q60492); assay: Displacement of [3H](+)-pentazocine from sigma 1 receptor in guinea pig brain membranes measured after 150 mins by liquid scintillation counting method; assay type: cell membranes, Membrane
Sigma non-opioid intracellular receptor 1, sequence (Q60492 whole entry): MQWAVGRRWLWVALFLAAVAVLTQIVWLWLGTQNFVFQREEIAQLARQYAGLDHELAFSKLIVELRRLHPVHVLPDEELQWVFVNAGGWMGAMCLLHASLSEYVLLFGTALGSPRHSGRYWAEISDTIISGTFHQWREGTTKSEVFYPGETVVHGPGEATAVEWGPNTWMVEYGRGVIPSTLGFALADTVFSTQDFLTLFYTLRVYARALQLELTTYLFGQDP

Oocyte [15] = assay: Antagonist activity at human dopamine D4 receptor polymorphic variant 2 expressed in Xenopus laevis oocytes at 1 uM incubated for 2 mins; assay type: cell-based; conditions: filed as antagonist
Oocyte [16] = assay: Antagonist activity at human dopamine D4 receptor polymorphic variant 7 expressed in Xenopus laevis oocytes at 1 uM incubated for 2 mins; assay type: cell-based
Oocyte [17] = assay: Antagonist activity at human dopamine D4 receptor polymorphic variant 4 expressed in Xenopus laevis oocytes at 1 uM incubated for 2 mins; assay type: cell-based; conditions: filed as antagonist
NCI-H460 = assay: Antiproliferative activity against human NCI-H460 assessed as cell growth inhibition at 100 uM by SRB assay based spectrophotometric analysis; assay type: functional
DNA gyrase [18] = molecular target: T2, DNA gyrase (Escherichia coli, UniProt P0AES4+P0AES6); assay: Inhibition of Escherichia coli DNA gyrase supercoiling activity using pBR322 DNA as substrate incubated for 2 hrs by ethidium bromide/bromophenol blue staining based agarose gel electrophoresis analysis; assay type: protein-complex assay
DNA gyrase [19] = molecular target: T2, DNA gyrase; assay: Inhibition of Escherichia coli DNA gyrase assessed as inhibition of relaxation of supercoiled plasmid pBR322 DNA incubated for 2 hrs by ethidium bromide/bromophenol blue staining based agarose gel electrophoresis analysis; assay type: protein-complex assay
DNA topoisomerase 2 = DNA topoisomerase 2 (Drosophila melanogaster, UniProt P15348); assay: Inhibition of Drosophila topoisomerase II assessed as relaxation of supercoiled plasmid pBR322 DNA incubated for 30 mins by ethidium bromide staining based agarose gel electrophoresis
DNA topoisomerase 2, sequence (P15348 whole entry): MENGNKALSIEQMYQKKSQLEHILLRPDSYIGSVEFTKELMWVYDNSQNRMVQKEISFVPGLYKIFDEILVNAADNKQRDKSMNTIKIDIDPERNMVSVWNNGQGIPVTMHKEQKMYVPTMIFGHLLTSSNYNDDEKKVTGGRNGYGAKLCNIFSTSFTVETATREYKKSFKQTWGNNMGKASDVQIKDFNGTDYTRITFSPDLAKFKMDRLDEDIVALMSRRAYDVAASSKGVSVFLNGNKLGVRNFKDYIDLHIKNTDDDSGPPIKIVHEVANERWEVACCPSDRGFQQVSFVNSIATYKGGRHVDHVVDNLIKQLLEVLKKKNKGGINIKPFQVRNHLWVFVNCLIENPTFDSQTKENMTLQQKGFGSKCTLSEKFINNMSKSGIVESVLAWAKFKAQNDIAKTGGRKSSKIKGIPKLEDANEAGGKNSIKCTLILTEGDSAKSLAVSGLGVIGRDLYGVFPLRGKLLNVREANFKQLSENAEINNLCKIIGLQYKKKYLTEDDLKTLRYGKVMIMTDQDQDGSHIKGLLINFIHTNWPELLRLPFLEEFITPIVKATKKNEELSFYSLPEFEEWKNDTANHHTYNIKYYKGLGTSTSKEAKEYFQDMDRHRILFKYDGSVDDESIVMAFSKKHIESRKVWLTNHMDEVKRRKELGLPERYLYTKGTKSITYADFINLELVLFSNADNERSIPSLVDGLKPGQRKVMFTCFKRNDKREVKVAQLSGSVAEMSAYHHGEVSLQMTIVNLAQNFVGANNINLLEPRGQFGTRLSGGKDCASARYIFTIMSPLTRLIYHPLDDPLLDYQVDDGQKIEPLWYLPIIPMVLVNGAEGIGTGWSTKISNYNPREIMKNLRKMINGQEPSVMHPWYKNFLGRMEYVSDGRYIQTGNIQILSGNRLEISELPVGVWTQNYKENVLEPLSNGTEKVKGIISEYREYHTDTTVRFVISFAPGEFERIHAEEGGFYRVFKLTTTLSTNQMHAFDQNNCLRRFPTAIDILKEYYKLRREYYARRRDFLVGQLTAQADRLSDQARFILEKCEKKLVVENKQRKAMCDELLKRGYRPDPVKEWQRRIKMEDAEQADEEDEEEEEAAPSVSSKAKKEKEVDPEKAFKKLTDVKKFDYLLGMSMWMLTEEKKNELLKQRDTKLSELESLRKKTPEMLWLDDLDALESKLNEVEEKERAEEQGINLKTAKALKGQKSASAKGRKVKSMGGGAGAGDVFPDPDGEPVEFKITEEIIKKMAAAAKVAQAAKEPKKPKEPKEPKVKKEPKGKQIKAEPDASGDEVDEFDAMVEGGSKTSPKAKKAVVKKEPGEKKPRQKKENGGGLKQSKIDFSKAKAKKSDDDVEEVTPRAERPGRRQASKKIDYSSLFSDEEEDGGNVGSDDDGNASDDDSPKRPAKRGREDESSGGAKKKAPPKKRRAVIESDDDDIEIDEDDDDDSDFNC

Mus musculus [20] = species: Mus musculus; assay: Analgesic activity in acetic acid induced mouse assessed as assessed as reduction in acetic acid induced writhing […]; assay type: functional, organism-based
[21] = molecular target: Sigma intracellular receptor 2 (Rattus norvegicus, UniProt Q5U3Y7); assay: Displacement of [3H]DTG from sigma 2 receptor in Sprague-Dawley rat liver membranes measured after 120 mins by liquid scintillation counting method; assay type: cell membranes, Membrane
Sigma intracellular receptor 2, sequence (Q5U3Y7 whole entry): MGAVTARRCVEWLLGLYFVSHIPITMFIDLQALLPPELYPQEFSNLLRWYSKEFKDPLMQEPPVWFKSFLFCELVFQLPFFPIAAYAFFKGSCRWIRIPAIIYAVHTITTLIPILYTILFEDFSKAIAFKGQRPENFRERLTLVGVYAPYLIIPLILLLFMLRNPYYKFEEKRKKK

KB = assay: Antiproliferative activity against human KB cells assessed as cell growth inhibition incubated for 48 hrs by coulter counter method; assay type: functional; conditions: read-out: ID50 (the source's name)
D(4) dopamine receptor = D(4) dopamine receptor (Homo sapiens, UniProt P21917); assay: Displacement of spiperone from human dopamine D4 receptor expressed in CHO cell membrane incubated for 1 hr by competitive radioligand binding assay based; assay type: cell membranes
D(4) dopamine receptor, sequence (P21917 whole entry): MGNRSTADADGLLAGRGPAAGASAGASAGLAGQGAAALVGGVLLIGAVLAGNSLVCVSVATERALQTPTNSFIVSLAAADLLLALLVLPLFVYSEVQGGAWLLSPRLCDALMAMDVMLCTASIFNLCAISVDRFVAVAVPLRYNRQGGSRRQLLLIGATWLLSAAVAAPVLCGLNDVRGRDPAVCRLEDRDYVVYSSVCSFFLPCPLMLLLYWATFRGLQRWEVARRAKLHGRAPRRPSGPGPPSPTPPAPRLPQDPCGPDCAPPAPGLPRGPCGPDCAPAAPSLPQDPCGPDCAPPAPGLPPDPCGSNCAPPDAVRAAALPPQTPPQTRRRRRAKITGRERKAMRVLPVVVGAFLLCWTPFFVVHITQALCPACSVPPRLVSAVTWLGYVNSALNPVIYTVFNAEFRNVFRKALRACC

[22] = molecular target: 5-hydroxytryptamine receptor 1B (Homo sapiens, UniProt P28222); assay: Displacement of [3H]serotonin from recombinant human 5-HT1B receptor expressed in HEK293 cells incubated for 1 hr by competitive radioligand binding assay based; assay type: cell-based
5-hydroxytryptamine receptor 1B, sequence (P28222 whole entry): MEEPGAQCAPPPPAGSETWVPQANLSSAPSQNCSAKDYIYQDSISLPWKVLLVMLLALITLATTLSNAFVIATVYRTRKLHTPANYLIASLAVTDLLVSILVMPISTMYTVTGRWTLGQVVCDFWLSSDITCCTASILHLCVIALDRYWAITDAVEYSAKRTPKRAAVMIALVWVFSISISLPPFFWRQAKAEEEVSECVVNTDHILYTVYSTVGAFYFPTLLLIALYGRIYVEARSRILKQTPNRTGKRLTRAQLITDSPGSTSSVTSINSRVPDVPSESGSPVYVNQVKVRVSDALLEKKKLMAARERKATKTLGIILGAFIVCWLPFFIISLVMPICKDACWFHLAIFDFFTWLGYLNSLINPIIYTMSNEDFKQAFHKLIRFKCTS

Rattus norvegicus [23] = assay: Anti-ulcerative activity in aspirin induced Sprague-Dawley rat ulcer model assessed as inhibition of ulcer index at 20 mg/kg,po; assay type: functional

CC1=Cc2c(C=O)c(O)c(Cc3c(O)c(C=O)c4c(c3O)COC(C)=C4)c(O)c2CO1
inhibition (Acetylcholinesterase [1]): 46%

COC1(C)Cc2c(C=O)c(O)c(Cc3c(O)c(C=O)c4c(c3O)COC(C)=C4)c(O)c2CO1 (stereo unspecified)
inhibition (Acetylcholinesterase [1]): 55%

CC(CC1OCCc2ccccc21)NCCc1ccccc1 (stereo unspecified)
inhibition in vivo at 20 mg/kg (Rattus norvegicus [2]): 71.3%

COc1cc(O)c(C)c2c1CO[C@@H](C)[C@@H]2O
inhibition at 10 µg/mL (L5178Y): 26.2%

COc1cccc(Nc2nnc(C3(C)OCCc4cc(OC)c(OC)c(OC)c43)s2)c1 (stereo unspecified)
MIC (Escherichia coli): 6.25 µg/mL (≈ 14.1 µM)
MIC (Pseudomonas aeruginosa): 6.25 µg/mL (≈ 14.1 µM)
MIC (Aspergillus fumigatus): 6.25 µg/mL (≈ 14.1 µM)
MIC (Klebsiella pneumoniae): 6.25 µg/mL (≈ 14.1 µM)
MIC (Talaromyces marneffei): 6.25 µg/mL (≈ 14.1 µM)
MIC [3]: 6.25 µg/mL (≈ 14.1 µM)
MIC (Aspergillus flavus): 6.25 µg/mL (≈ 14.1 µM)
MIC (Staphylococcus aureus): 6.25 µg/mL (≈ 14.1 µM)

COc1cc2c(cc1OC)C1CNCC(C2)O1 (stereo unspecified)
Activity [4]: 93%

COc1cc2c(cc1OC)C(=O)/C(=C/c1cc[n+](Cc3ccc(F)cc3)cc1)OC2
Ratio IC50 (Homo sapiens): > 5000
IC50 (Acetylcholinesterase [5]): 0.00015 µM

NC[C@@H]1O[C@H](C23CC4CC(CC(C4)C2)C3)Cc2c1ccc(O)c2O
Ki (D(1A) dopamine receptor): 0.0039 µM
Ki [6]: 1.86 µM

Cc1c(O)cc(O)c2c1[C@H](C)[C@@H](C)O[C@@H]2c1ccc(O)cc1
IC50 (HL-60): 22.7 µg/mL (≈ 75.6 µM)

CN1CCC2(CC1)COCc1ccccc12
ED50 (Mus musculus [7]): 12 mg/kg

CC(C)NC(C)CC1OCCc2ccccc21 (stereo unspecified)
inhibition in vivo at 20 mg/kg (Rattus norvegicus [2]): 61%

CCCNCC(O)CC/N=C1\COCc2c1ccc(OC)c2OC (stereo unspecified)
inhibition [8]: 62.9%

COc1cc(O)c(C)c2c1CO[C@@H](C)C2
inhibition at 10 µg/mL (L5178Y): 3.4%

COc1cc2c(c(OC)c1OC)C(C)(c1n[nH]c(=S)n1-c1ccc(C)cc1)OCC2 (stereo unspecified)
MIC (Escherichia coli): 6.25 µg/mL (≈ 14.6 µM)
MIC (Pseudomonas aeruginosa): 6.25 µg/mL (≈ 14.6 µM)
MIC (Klebsiella pneumoniae): 6.25 µg/mL (≈ 14.6 µM)
MIC (Staphylococcus aureus): 6.25 µg/mL (≈ 14.6 µM)

O=C1OCC2(CCN(Cc3ccccc3)CC2)c2ccccc21
ED50 (Mus musculus [7]): 100 mg/kg
inhibition in vivo at 500 µM (Rattus norvegicus [9]): 31%

COc1cc(O)cc2c1CO[C@@H](C)C2
inhibition at 10 µg/mL (L5178Y): 16.1%

COc1cc(O)c(C)c2c1[C@@H](OC)O[C@@H](C)C2
inhibition at 100 µg/mL (Lasiodiplodia theobromae): 76%

Oc1ccc2c(c1)OCC21Cc2cc(O)c(O)cc2C(O)O1 (stereo unspecified)
IC50 [10]: 33.3 µM
IC50 [11]: 33.3 µM
IC50 [12]: 78.2 µM

COC1Cc2ccccc2C2(CCN(CCc3ccccc3)CC2)O1 (stereo unspecified)
Ratio Ki [13]: 148
Ki [14]: 0.00207 µM

COc1ccc(N2CCN(CC[C@@H]3O[C@@H](C)Cc4cc(OC)c(OC)cc43)CC2)cc1
inhibition (Oocyte [15]): 66%
inhibition (Oocyte [16]): 33%
inhibition (Oocyte [17]): 46%

COC(=O)Cc1cc2c(cc1C(=O)c1ccc(N)cc1)OCO2
inhibition at 100 µM (NCI-H460): 4%

CCCCCCC[C@H]1Cc2cc(O)c(C(=O)O)c(O)c2[C@@H](O)O1
IC50 (DNA gyrase [18]): 18.5 µM
IC50 (DNA gyrase [19]): 27.7 µM
IC50 (DNA topoisomerase 2): 3.08 µM

COc1cc(O)c(C)c2c1[C@H](O)O[C@@H](C)C2
inhibition at 10 µg/mL (L5178Y): 40.4%

COC(=O)[C@]1(C)Cc2cc(OC)c(OC)cc2C2(CCN(C)CC2)O1.Cl
EC50 (Mus musculus [20]): 44 mg/kg

CCOC1OC(C)Cc2c(C)c(O)cc(OC)c21 (stereo unspecified)
inhibition at 100 µg/mL (Lasiodiplodia theobromae): 74%

N#CC1Cc2ccccc2C2(CCN(Cc3ccccc3)CC2)O1 (stereo unspecified)
Ki [21]: 1.59 µM

Clc1ccc2oc(SCC3OCCc4ccccc43)nc2c1 (stereo unspecified)
IC50 (KB): 6.1 µg/mL (≈ 18.4 µM)

COc1cc2c(cc1OC)C1CN(C)CC(C2)O1 (stereo unspecified)
Activity [4]: 95%
EC50 (Mus musculus [20]): 77 mg/kg

c1ccc(CCN2CCC3(CC2)COCc2ccccc23)cc1
ED50 (Mus musculus [7]): 54 mg/kg
inhibition in vivo at 500 µM (Rattus norvegicus [9]): 96%

COC1(C)Cc2c(C=O)c(O)c(Cc3c(O)c(C=O)c4c(c3O)COC(C)(OC)C4)c(O)c2CO1 (stereo unspecified)
inhibition (Acetylcholinesterase [1]): 53%

COC1=CC(=O)C(C)=C2C[C@H](C)OC=C12
inhibition at 100 µg/mL (Lasiodiplodia theobromae): 69%

COc1cc(O)c(C)c2c1C(=O)O[C@@H](C)C2
inhibition at 10 µg/mL (L5178Y): 59.5%

O=C1OCC2(CCN(CCc3ccccc3)CC2)c2ccccc21
ED50 (Mus musculus [7]): 60 mg/kg
inhibition in vivo at 500 µM (Rattus norvegicus [9]): 94%

CC1=Cc2c(C=O)c(O)c(C)c(O)c2CO1
inhibition (Acetylcholinesterase [1]): -2%

COC1(C)Cc2c(C=O)c(O)c(C)c(O)c2CO1 (stereo unspecified)
inhibition (Acetylcholinesterase [1]): -1%

CN/C(=N\CCSCc1nc[nH]c1C)NC#N [CIMETIDINE]
inhibition in vivo at 20 mg/kg (Rattus norvegicus [2]): 51.6%

COc1cc(O)cc2c1C(=O)O[C@@H](C)C2
inhibition at 10 µg/mL (L5178Y): 13.7%

CNC(=O)c1ccc2c(c1)CCO[C@H]2CCN1CCN(c2ccc(OC)cc2)CC1
Ki (D(4) dopamine receptor): 3.7 µM
Ki [22]: 5.78 µM

CC12Cc3cc4c(cc3C(c3ccc(N)cc3)(OCO1)O2)OCO4 (stereo unspecified)
inhibition at 100 µM (NCI-H460): 86%

CC(CC1CCCc2ccccc21)NCC(C)c1ccccc1 (stereo unspecified)
inhibition in vivo at 20 mg/kg (Rattus norvegicus [23]): 3.2%
inhibition in vivo at 20 mg/kg (Rattus norvegicus [2]): 71.3%

C[C@H]1Cc2cc3c(cc2[C@H](c2ccc(N)cc2)O1)OCO3
inhibition at 100 µM (NCI-H460): 67%
